Measured values as given in patent US10253039B2, “Inhibitors of bacterial DNA gyrase with efficacy against gram-negative bacteria” (priority 2014, dated 2019).
In brackets after ≈: the same amount, converted by molar mass.

Test system: E. coli BW25113
Experiment: MIC, microdilution in 96-well plates
Assay type: cell-based
Conditions: Escherichia coli, BW25113, B: E. coli BW25113; read-out: MIC
Summary of the method: (§1)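 Broth microdilution per CLSI guidance: each strain was diluted 1:10000 from a growing subculture into Luria-Bertani medium, and compound was serially diluted 2-fold in triplicate alongside a DMSO column. Plates were shaken at 37° C. for 16-18 hours; MIC is the lowest concentration showing no visible turbidity.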

SMILES | MIC
O=S(=O)(N[C@@H]1CCN(Cc2ccc(OC3CCC3)cc2)C1)c1cccc(C(F)(F)F)c1 [Compound 5] | ~8 µg/mL (≈ 17.6 µM)
N#Cc1cccc(S(=O)(=O)N[C@@H]2CCN(Cc3ccc(-c4ccc(Cl)cc4)cc3)C2)c1 [Compound 101] | > 8 µg/mL
O=S(=O)(N[C@@H]1CCN(Cc2ccc(-c3ccccc3)cc2)C1)c1ncc[nH]1 [Compound 16] | > 8 µg/mL
Cc1ccc(S(C)(=O)=O)cc1S(=O)(=O)N[C@@H]1CCN(Cc2ccc(OC3CC3)cc2)C1 [Compound 79] | > 8 µg/mL
COc1cc(CN2CC[C@@H](NS(=O)(=O)c3cccc(C(F)(F)F)c3)C2)ccc1OC(C)C [Compound 42] | > 8 µg/mL
O=S(=O)(N[C@@H]1CCN(Cc2ccc(OC3CC3)cc2)C1)c1cc(C(F)(F)F)ccc1Cl [Compound 90] | ~8 µg/mL (≈ 16.8 µM)

Test system: Edwardsiella tarda
Experiment: MIC, microdilution in 96-well plates
Assay type: cell-based
Conditions: D: Edwardsiella tarda
Summary of the method: as §1

SMILES | MIC
O=S(=O)(N[C@@H]1CCN(Cc2ccc(OC3CCC3)cc2)C1)c1cccc(C(F)(F)F)c1 [Compound 5] | > 8 µg/mL
N#Cc1cccc(S(=O)(=O)N[C@@H]2CCN(Cc3ccc(-c4ccc(Cl)cc4)cc3)C2)c1 [Compound 101] | > 8 µg/mL
O=S(=O)(N[C@@H]1CCN(Cc2ccc(-c3ccccc3)cc2)C1)c1ncc[nH]1 [Compound 16] | > 8 µg/mL
Cc1ccc(S(C)(=O)=O)cc1S(=O)(=O)N[C@@H]1CCN(Cc2ccc(OC3CC3)cc2)C1 [Compound 79] | > 8 µg/mL
COc1cc(CN2CC[C@@H](NS(=O)(=O)c3cccc(C(F)(F)F)c3)C2)ccc1OC(C)C [Compound 42] | > 8 µg/mL
O=S(=O)(N[C@@H]1CCN(Cc2ccc(OC3CC3)cc2)C1)c1cc(C(F)(F)F)ccc1Cl [Compound 90] | > 8 µg/mL

Test system: E. coli JW5503 (deltolC)
Experiment: MIC, 20-strain panel
Assay type: cell-based
Conditions: Escherichia coli, C: E. coli JW5503 (deltolC)
Summary of the method: as §1

SMILES | MIC
O=S(=O)(N[C@@H]1CCN(Cc2ccc(OC3CCC3)cc2)C1)c1cccc(C(F)(F)F)c1 [Compound 5] | 0.125 µg/mL (≈ 0.275 µM)
N#Cc1cccc(S(=O)(=O)N[C@@H]2CCN(Cc3ccc(-c4ccc(Cl)cc4)cc3)C2)c1 [Compound 101] | 2 µg/mL (≈ 4.42 µM)
O=S(=O)(N[C@@H]1CCN(Cc2ccc(-c3ccccc3)cc2)C1)c1ncc[nH]1 [Compound 16] | 2 µg/mL (≈ 5.23 µM)
Cc1ccc(S(C)(=O)=O)cc1S(=O)(=O)N[C@@H]1CCN(Cc2ccc(OC3CC3)cc2)C1 [Compound 79] | > 8 µg/mL
COc1cc(CN2CC[C@@H](NS(=O)(=O)c3cccc(C(F)(F)F)c3)C2)ccc1OC(C)C [Compound 42] | > 8 µg/mL
O=S(=O)(N[C@@H]1CCN(Cc2ccc(OC3CC3)cc2)C1)c1cc(C(F)(F)F)ccc1Cl [Compound 90] | < 0.0625 µg/mL

Test system: E. coli MG1655
Experiment: MIC, 20-strain panel
Assay type: cell-based
Conditions: Escherichia coli, MG1655, A: E. coli MG1655; read-out: MIC
Summary of the method: as §1

SMILES | MIC
O=S(=O)(N[C@@H]1CCN(Cc2ccc(OC3CCC3)cc2)C1)c1cccc(C(F)(F)F)c1 [Compound 5] | > 8 µg/mL
N#Cc1cccc(S(=O)(=O)N[C@@H]2CCN(Cc3ccc(-c4ccc(Cl)cc4)cc3)C2)c1 [Compound 101] | > 8 µg/mL
O=S(=O)(N[C@@H]1CCN(Cc2ccc(-c3ccccc3)cc2)C1)c1ncc[nH]1 [Compound 16] | > 8 µg/mL
Cc1ccc(S(C)(=O)=O)cc1S(=O)(=O)N[C@@H]1CCN(Cc2ccc(OC3CC3)cc2)C1 [Compound 79] | > 8 µg/mL
COc1cc(CN2CC[C@@H](NS(=O)(=O)c3cccc(C(F)(F)F)c3)C2)ccc1OC(C)C [Compound 42] | > 8 µg/mL
O=S(=O)(N[C@@H]1CCN(Cc2ccc(OC3CC3)cc2)C1)c1cc(C(F)(F)F)ccc1Cl [Compound 90] | > 8 µg/mL

Test system: Klebsiella pneumoniae subsp. pneumoniae
Experiment: MIC, 20-strain panel
Assay type: cell-based
Conditions: E: Klebsiella pneumoniae subsp. pneumoniae
Summary of the method: as §1

SMILES | MIC
O=S(=O)(N[C@@H]1CCN(Cc2ccc(OC3CCC3)cc2)C1)c1cccc(C(F)(F)F)c1 [Compound 5] | > 8 µg/mL
N#Cc1cccc(S(=O)(=O)N[C@@H]2CCN(Cc3ccc(-c4ccc(Cl)cc4)cc3)C2)c1 [Compound 101] | > 8 µg/mL
O=S(=O)(N[C@@H]1CCN(Cc2ccc(-c3ccccc3)cc2)C1)c1ncc[nH]1 [Compound 16] | > 8 µg/mL
Cc1ccc(S(C)(=O)=O)cc1S(=O)(=O)N[C@@H]1CCN(Cc2ccc(OC3CC3)cc2)C1 [Compound 79] | > 8 µg/mL
COc1cc(CN2CC[C@@H](NS(=O)(=O)c3cccc(C(F)(F)F)c3)C2)ccc1OC(C)C [Compound 42] | > 8 µg/mL
O=S(=O)(N[C@@H]1CCN(Cc2ccc(OC3CC3)cc2)C1)c1cc(C(F)(F)F)ccc1Cl [Compound 90] | > 8 µg/mL

Test system: Salmonella enterica subsp. enterica typhimurium
Experiment: MIC, 20-strain panel
Assay type: cell-based
Conditions: F: Salmonella enterica subsp. enterica Typhimurium
Summary of the method: as §1

SMILES | MIC
O=S(=O)(N[C@@H]1CCN(Cc2ccc(OC3CCC3)cc2)C1)c1cccc(C(F)(F)F)c1 [Compound 5] | 8 µg/mL (≈ 17.6 µM)
N#Cc1cccc(S(=O)(=O)N[C@@H]2CCN(Cc3ccc(-c4ccc(Cl)cc4)cc3)C2)c1 [Compound 101] | > 8 µg/mL
O=S(=O)(N[C@@H]1CCN(Cc2ccc(-c3ccccc3)cc2)C1)c1ncc[nH]1 [Compound 16] | 8 µg/mL (≈ 20.9 µM)
Cc1ccc(S(C)(=O)=O)cc1S(=O)(=O)N[C@@H]1CCN(Cc2ccc(OC3CC3)cc2)C1 [Compound 79] | > 8 µg/mL
COc1cc(CN2CC[C@@H](NS(=O)(=O)c3cccc(C(F)(F)F)c3)C2)ccc1OC(C)C [Compound 42] | > 8 µg/mL
O=S(=O)(N[C@@H]1CCN(Cc2ccc(OC3CC3)cc2)C1)c1cc(C(F)(F)F)ccc1Cl [Compound 90] | 4 µg/mL (≈ 8.42 µM)

Test system: Shigella flexneri
Experiment: MIC, 20-strain panel
Assay type: cell-based
Conditions: G: Shigella flexneri
Summary of the method: as §1

SMILES | MIC
O=S(=O)(N[C@@H]1CCN(Cc2ccc(OC3CCC3)cc2)C1)c1cccc(C(F)(F)F)c1 [Compound 5] | > 8 µg/mL
N#Cc1cccc(S(=O)(=O)N[C@@H]2CCN(Cc3ccc(-c4ccc(Cl)cc4)cc3)C2)c1 [Compound 101] | > 8 µg/mL
O=S(=O)(N[C@@H]1CCN(Cc2ccc(-c3ccccc3)cc2)C1)c1ncc[nH]1 [Compound 16] | > 8 µg/mL
Cc1ccc(S(C)(=O)=O)cc1S(=O)(=O)N[C@@H]1CCN(Cc2ccc(OC3CC3)cc2)C1 [Compound 79] | > 8 µg/mL
COc1cc(CN2CC[C@@H](NS(=O)(=O)c3cccc(C(F)(F)F)c3)C2)ccc1OC(C)C [Compound 42] | > 8 µg/mL
O=S(=O)(N[C@@H]1CCN(Cc2ccc(OC3CC3)cc2)C1)c1cc(C(F)(F)F)ccc1Cl [Compound 90] | ~8 µg/mL (≈ 16.8 µM)

Test system: Staphylococcus aureus subsp. aureus
Experiment: MIC, 20-strain panel
Assay type: cell-based
Conditions: H: Staphylococcus aureus subsp. aureus, read-out: MIC
Summary of the method: as §1

SMILES | MIC
O=S(=O)(N[C@@H]1CCN(Cc2ccc(OC3CCC3)cc2)C1)c1cccc(C(F)(F)F)c1 [Compound 5] | > 8 µg/mL
N#Cc1cccc(S(=O)(=O)N[C@@H]2CCN(Cc3ccc(-c4ccc(Cl)cc4)cc3)C2)c1 [Compound 101] | ~8 µg/mL (≈ 17.7 µM)
O=S(=O)(N[C@@H]1CCN(Cc2ccc(-c3ccccc3)cc2)C1)c1ncc[nH]1 [Compound 16] | > 8 µg/mL
Cc1ccc(S(C)(=O)=O)cc1S(=O)(=O)N[C@@H]1CCN(Cc2ccc(OC3CC3)cc2)C1 [Compound 79] | > 8 µg/mL
COc1cc(CN2CC[C@@H](NS(=O)(=O)c3cccc(C(F)(F)F)c3)C2)ccc1OC(C)C [Compound 42] | > 8 µg/mL
O=S(=O)(N[C@@H]1CCN(Cc2ccc(OC3CC3)cc2)C1)c1cc(C(F)(F)F)ccc1Cl [Compound 90] | > 8 µg/mL

Test system: Staphylococcus epidermidis
Experiment: MIC, 20-strain panel
Assay type: cell-based
Conditions: not given
Summary of the method: as §1

SMILES | MIC
O=S(=O)(N[C@@H]1CCN(Cc2ccc(OC3CCC3)cc2)C1)c1cccc(C(F)(F)F)c1 [Compound 5] | > 8 µg/mL
N#Cc1cccc(S(=O)(=O)N[C@@H]2CCN(Cc3ccc(-c4ccc(Cl)cc4)cc3)C2)c1 [Compound 101] | 8 µg/mL (≈ 17.7 µM)
O=S(=O)(N[C@@H]1CCN(Cc2ccc(-c3ccccc3)cc2)C1)c1ncc[nH]1 [Compound 16] | > 8 µg/mL
Cc1ccc(S(C)(=O)=O)cc1S(=O)(=O)N[C@@H]1CCN(Cc2ccc(OC3CC3)cc2)C1 [Compound 79] | > 8 µg/mL
COc1cc(CN2CC[C@@H](NS(=O)(=O)c3cccc(C(F)(F)F)c3)C2)ccc1OC(C)C [Compound 42] | > 8 µg/mL
O=S(=O)(N[C@@H]1CCN(Cc2ccc(OC3CC3)cc2)C1)c1cc(C(F)(F)F)ccc1Cl [Compound 90] | > 8 µg/mL

Test system: Staphylococcus saprophyticus subsp. saprophyticus
Experiment: MIC, 20-strain panel
Assay type: cell-based
Conditions: not given
Summary of the method: as §1

SMILES | MIC
O=S(=O)(N[C@@H]1CCN(Cc2ccc(OC3CCC3)cc2)C1)c1cccc(C(F)(F)F)c1 [Compound 5] | > 8 µg/mL
N#Cc1cccc(S(=O)(=O)N[C@@H]2CCN(Cc3ccc(-c4ccc(Cl)cc4)cc3)C2)c1 [Compound 101] | > 8 µg/mL
O=S(=O)(N[C@@H]1CCN(Cc2ccc(-c3ccccc3)cc2)C1)c1ncc[nH]1 [Compound 16] | > 8 µg/mL
Cc1ccc(S(C)(=O)=O)cc1S(=O)(=O)N[C@@H]1CCN(Cc2ccc(OC3CC3)cc2)C1 [Compound 79] | > 8 µg/mL
COc1cc(CN2CC[C@@H](NS(=O)(=O)c3cccc(C(F)(F)F)c3)C2)ccc1OC(C)C [Compound 42] | > 8 µg/mL
O=S(=O)(N[C@@H]1CCN(Cc2ccc(OC3CC3)cc2)C1)c1cc(C(F)(F)F)ccc1Cl [Compound 90] | > 8 µg/mL

Test system: Streptococcus agalactiae
Experiment: MIC, 20-strain panel
Assay type: cell-based
Conditions: not given
Summary of the method: as §1

SMILES | MIC
O=S(=O)(N[C@@H]1CCN(Cc2ccc(OC3CCC3)cc2)C1)c1cccc(C(F)(F)F)c1 [Compound 5] | > 8 µg/mL
N#Cc1cccc(S(=O)(=O)N[C@@H]2CCN(Cc3ccc(-c4ccc(Cl)cc4)cc3)C2)c1 [Compound 101] | > 8 µg/mL
O=S(=O)(N[C@@H]1CCN(Cc2ccc(-c3ccccc3)cc2)C1)c1ncc[nH]1 [Compound 16] | > 8 µg/mL
Cc1ccc(S(C)(=O)=O)cc1S(=O)(=O)N[C@@H]1CCN(Cc2ccc(OC3CC3)cc2)C1 [Compound 79] | > 8 µg/mL
COc1cc(CN2CC[C@@H](NS(=O)(=O)c3cccc(C(F)(F)F)c3)C2)ccc1OC(C)C [Compound 42] | > 8 µg/mL
O=S(=O)(N[C@@H]1CCN(Cc2ccc(OC3CC3)cc2)C1)c1cc(C(F)(F)F)ccc1Cl [Compound 90] | > 8 µg/mL

Test system: Streptococcus pyogenes
Experiment: MIC, 20-strain panel
Assay type: cell-based
Conditions: not given
Summary of the method: as §1

SMILES | MIC
O=S(=O)(N[C@@H]1CCN(Cc2ccc(OC3CCC3)cc2)C1)c1cccc(C(F)(F)F)c1 [Compound 5] | > 8 µg/mL
N#Cc1cccc(S(=O)(=O)N[C@@H]2CCN(Cc3ccc(-c4ccc(Cl)cc4)cc3)C2)c1 [Compound 101] | > 8 µg/mL
O=S(=O)(N[C@@H]1CCN(Cc2ccc(-c3ccccc3)cc2)C1)c1ncc[nH]1 [Compound 16] | > 8 µg/mL
Cc1ccc(S(C)(=O)=O)cc1S(=O)(=O)N[C@@H]1CCN(Cc2ccc(OC3CC3)cc2)C1 [Compound 79] | > 8 µg/mL
COc1cc(CN2CC[C@@H](NS(=O)(=O)c3cccc(C(F)(F)F)c3)C2)ccc1OC(C)C [Compound 42] | > 8 µg/mL
O=S(=O)(N[C@@H]1CCN(Cc2ccc(OC3CC3)cc2)C1)c1cc(C(F)(F)F)ccc1Cl [Compound 90] | > 8 µg/mL
